Measurements as given in a compilation of properties of binary mixtures (doi:10.1007/s10953-016-0490-x).

Assay: xn = mol fraction of the nth substance listed
Settings: 100 kPa

CCOC(C)=O + CCCC[n+]1ccn(C)c1.O=S(=O)([O-])C(F)(F)F
x2 = 0
Settings	speed of sound [m/s]	viscosity [mPa·s]
303.15 K	1118.3	0.4
308.15 K	1096	0.37
313.15 K	1073.7	0.35
318.15 K	1051.7	0.34
323.15 K	1029.5	0.33

CCCC[n+]1ccn(C)c1.O=S(=O)([O-])C(F)(F)F + CCOC(C)=O
Settings	speed of sound [m/s]	viscosity [mPa·s]
298.15 K, x1 = 0.0991	1172.2	1.27
298.15 K, x1 = 0.1916	1209.8	4.59
298.15 K, x1 = 0.3056	1252.1	10.8
298.15 K, x1 = 0.3978	1279.4	16
298.15 K, x1 = 0.5067	1310.3	22
298.15 K, x1 = 0.7138	1361.8	35
298.15 K, x1 = 0.7987	1374.2	41.8
298.15 K, x1 = 1	1393.2	82
303.15 K, x1 = 0.0991	1153.5	0.99
303.15 K, x1 = 0.1916	1191.9	3.76
303.15 K, x1 = 0.3056	1236.1	9
303.15 K, x1 = 0.5067	1296.5	18.5
303.15 K, x1 = 0.6095	1324.9	23.6
303.15 K, x1 = 0.7138	1349.9	29.1
303.15 K, x1 = 0.7987	1362.1	34.7
303.15 K, x1 = 0.8932	1371.6	44.9
308.15 K, x1 = 0.0991	1132.8	0.89
308.15 K, x1 = 0.1916	1174	3.12
308.15 K, x1 = 0.3056	1220.2	7.3
308.15 K, x1 = 0.3978	1251.5	10.8
308.15 K, x1 = 0.5067	1282.6	15.1
308.15 K, x1 = 0.6095	1312.1	19.6
308.15 K, x1 = 0.7138	1338.2	24.6
308.15 K, x1 = 0.7987	1351	29.1
308.15 K, x1 = 0.8932	1359.7	37.1
308.15 K, x1 = 1	1371.7	53
313.15 K, x1 = 0.1916	1156.4	2.89
313.15 K, x1 = 0.3056	1204.4	6.6
313.15 K, x1 = 0.3978	1237.6	9.8
313.15 K, x1 = 0.5067	1268.7	13.5
313.15 K, x1 = 0.6095	1300.4	17.1
313.15 K, x1 = 0.7138	1326.8	20.9
313.15 K, x1 = 0.7987	1338.3	24.6
313.15 K, x1 = 0.8932	1349.5	31
318.15 K, x1 = 0.0991	1091.7	0.79
318.15 K, x1 = 0.3056	1188.6	5.8
318.15 K, x1 = 0.3978	1223.7	8.5
318.15 K, x1 = 0.5067	1254	11.7
318.15 K, x1 = 0.6095	1288	14.8
318.15 K, x1 = 0.7138	1314.3	18
318.15 K, x1 = 0.7987	1326.4	21.1
318.15 K, x1 = 0.8932	1337.3	26.2
323.15 K, x1 = 0.0991	1071.3	0.75
323.15 K, x1 = 0.1916	1120.7	2.26
323.15 K, x1 = 0.3056	1172.8	5
323.15 K, x1 = 0.3978	1210.9	7.2
323.15 K, x1 = 0.5067	1240.3	9.9
323.15 K, x1 = 0.6095	1274.9	12.9
323.15 K, x1 = 0.7138	1303.2	15.6
323.15 K, x1 = 1	1338.8	30.6
